These results are taken from patent US9617311B2, “Use of PEDF-derived polypeptides for promoting stem cells proliferation and wound healing” (Mackay Memorial Hospital, priority 2011, dated 2017).

Experiment [1] concerns hair follicle stem cells (HFSCs). Put plainly: In vitro HFSC proliferation, BrdU pulse-labeling with Lgr6 immunostaining. The experiment is classed as cell-based, Human. Particulars: 50 nM peptide or 4.5 nM PEDF in medium; BrdU 2 hours; control 31.9±5.6%. As for the experimental part: FIG. 5A provides immunofluorescence microscopy photographs and FIG. 5B is a histogram, and together, they illustrate the in vitro proliferation of HFSCs from treatment groups according to one example of the present disclosure. HFSC proliferation was determined by BrdU labeling for 2 hours. HFSCs (Lgr6, green) and BrdU (red) were detected by immunofluorescence microscopy (original magnification, ×1000). Twenty randomly selected fields in each group were photographed, and the percentage of BrdU and Lgr6-double positive cells (pale pink) per total Lgr6-positive cells was calculated. *P<0.001 versus untreated cells.
Human hair follicles were collected from hairs of healthy donors. The follicles were dissected with tweezers under microscope and most of adipose and connective tissue was removed. The bulge region of hair follicle under the sebaceous gland was cut and then bulge fragments (including central isthmus) were transferred into a 35-mm dish containing 1 ml of collagenase A (1 mg/ml; Roche) and incubated for 1.5 hours at 37° C. to digest the collagen capsule. Subsequently, the bulge fragments were transferred into a fresh cell culture dish containing dispase II (2.4 U/ml)/0.05% trypsin and further incubated for 1.5 hours at 37° C. to obtain a single cell suspension.
After mechanical dissection and enzymatic digestion, the suspended bulge cells isolated from five bulge fragments were seeded into a well of 12-well culture plate and incubated with the basal medium for 5 days to facilitate cell adhesion. The basal medium contains four parts Gibco calcium-free Dulbecco's modified Eagle's medium (DMEM) and one part Ham's F12 medium (calcium concentration reached about 0.25 mM) and supplemented with 10% FBS, 10 ng/ml human epidermal growth factor, 500 mg/I L-glutamine, 0.2% bovine pituitary extract, […] hydrocortisone, 1% ITSE as well as antibiotic-antimicotic solutions. Cultivation method was similar to that of Blazejewska et al. (Stem Cells 2009; 27:642). After 5 days of incubation, cells were cultured in the serum-free basal medium or basal medium containing 4.5 nM PEDF, 50 nM 29-mer, or 50 nM 20-mer, until near confluence (about 2 weeks; passage 0). The medium was changed every 2 to 3 days. The bulge cells were co-cultured with 3T3 fibroblast feeder cells. For passage, near-confluent cells were harvested by enzymatic treatment (i.e., 0.25% trypsin) for 5 min at 37° C. Approximately 1×10^5 human bulge cells were transferred to a new dish and allowed to grow for 14 days to near confluence (passage 1). […]

Experiment [2] deals with corneal wound. Nature of the experiment: Corneal wound healing in mice, fluorescein staining. The experiment is classed as in vivo, C57BL/6 mice. Particulars: for corneal re-epithelialization after 48 hours: 20 μl eye ointment with 50 μM peptide once a day, 2 mm wound; for residual epithelial defect, percentage of the original wound: 50 μM peptide eye ointment once a day. As for the experimental part:
The experiments were performed using eight-week-old female C57BL/6 mice, and the procedures were approved by the Mackay Memorial Hospital Review Board for animal investigation. Animals were anesthetized by an intraperitoneal injection of a mixture of zoletil (6 mg/kg) and xylazine (3 mg/kg). One filter paper (0.9 mm diameter) soaked with 20% ethanol was placed on the central cornea of right eye for one minute and then irrigated extensively with PBS. Subsequently, mechanical epithelial scrape was performed using a punch under a dissection microscope to create a circular injury (2 mm diameter) at the entire corneal region of the mouse eye without encroaching the corneal stroma, limbus or conjunctiva.
Each synthetic peptide (the 39-mer, 34-mer, 29-mer, 25-mer, 20-mer, 18-mer, Mo 29-mer or Mo 20-mer) was reconstituted in DMSO as stock (5 mM) and mixed with TOBREX® eye ointment (Alcon; containing 0.3% Tobramycin and 0.5% Chlorobutanol) to a concentration 50 μM. In each of the treatment group (n=6-10), the right eye was treated with 20 μl eye ointment containing the synthetic peptide once a day after the scrape injury. In the control group (n=20), right eye was treated with 20 μl of eye ointment mixed with vehicle DMSO. Wound size was determined by staining with topical fluorescein (Fluor-I-Strip, Ayerst Laboratories, Philadelphia, Pa.) and photographed with a digital camera. The area of defect was quantified from the photographs using a computer-assisted image analyzer (Adobe Photoshop CS3 10.0) and was calculated as the percentage of residual epithelial defect at each time point/initial wound area.
To investigate the effect of PEDF-derived short peptides on corneal wound healing in mice, corneal wound was created by a circular punch (2 mm diameter), then control eye-ointment or eye-ointment containing the short synthetic PEDF peptide(s) of this invention was applied to the wounded eye, and wound healing was subsequently evaluated by fluorescein staining. No significant differences in the size of the initial abrasion were noted between synthetic PEDF peptide-treated and control mice.

Experiment [3] has as its system full-thickness skin excisional wounds. Put plainly: Skin wound healing in mice, wound area from photographs. Particulars: for residual epithelial defects, percentage of the original wound: 25 μl skin ointment with 50 μM peptide once daily. The experiment is classed as in vivo, C57L/B6 mice. As for the experimental part:
FIG. 6A provides photographs and FIG. 6B is a histogram, and together, they illustrate the skin (epithelial) wound-healing of mice from treatment groups according to another example of the present disclosure. 4 mm punch wounds were made on the dorsal side of C57/B6 mice. Skin ointment was treated once a day. Photographs of the wounded skin and ruler (scale 10 mm) were captured with a CCD camera (Olympus). The residual epithelial defect (%) is presented as percentage of the original wound. Data are shown as mean±SE.
To perform full-thickness skin excision, 8- to 10-week-old C57L/B6 mice were respectively anesthetized by an intraperitoneal injection of a mixture of zoletil (6 mg/kg) and xylazine (3 mg/kg). Two full-thickness skin excisional wounds, 4 mm in diameter were made on either side of the dorsal midline using Sklar Tru-Punch disposable biopsy punch (Sklar, West Chester, Pa., USA). In each treatment group (n=6), the skin wound was treated with 25 μl skin ointment (containing 50 μM synthetic peptide and 0.006 μl DMSO vehicle) once daily after the skin scraping. In the control group (n=6), skin wound was treated with 25 μl of skin ointment with equal concentration of DMSO. Each gram of the above skin ointment contains 5 mg neomycin sulfate and 12.5 mg Bacitracin Zinc. Wounds were left uncovered and harvested 4 and 7 days after injury. Mice were housed individually during the healing period.
The area of wound was quantified from the photographs using a computer-assisted image analyzer (Adobe Photoshop CS3 10.0) and was calculated as the percentage of residual epithelial defect at each time point/initial wound area.

[4] abbreviates: day 4 post-injury, control 61.5±3.2%.
Setting [5] is: day 7 post-injury, control 44.5±5.3%.

Take EQRTESIIHRALYYDLIS [18-mer]: the “percentage of BrdU and Lgr6-double positive cells per total Lgr6-positive cells” value (from here on “percentage … per total Lgr6-positive cells”) in experiment [1] turned out to be 30.1±6.3%. The “corneal re-epithelialization after 48 hours” value (“corneal re-epithelialization” for short) in experiment [2] was “incompletely healed wounds”. In addition, the “promotion of skin wound healing” value in experiment [3] (days 4 and 7, 50 μM peptide skin ointment once daily) is given as “not able to promote wound healing”.

In the case of “SLGAEHRTESVIHRALYYDL [Mo 20-mer, synthetic peptide derived from mouse PEDF]”, in experiment [2], the “corneal re-epithelialization” value is reported as “complete corneal re-epithelialization”. The “residual epithelial defect, percentage of the original wound” value (shortened to “residual epithelial defect, percentage”) is listed as 43.9±7.6% in experiment [2] (24 hours, control 84.9±5.1%) and 6.2±3.5% in experiment [2] (48 hours, control 39.5±3.1%). Besides, the “residual epithelial defects, percentage of the original wound” value (“residual epithelial defects, percentage” for short) in experiment [3] (setting [4]) was determined as 49.6±3.9%; in experiment [3] (setting [5]), 20.3±7.5%.

With “SLGAEHRTESVIHRALYYDLITNPDIHST [Mo 29-mer, synthetic peptide derived from mouse PEDF]”, the “corneal re-epithelialization” value in experiment [2] was “complete corneal re-epithelialization”. For the same sequence, the “residual epithelial defect, percentage” value in experiment [2] (24 hours, control 84.9±5.1%) is on record as 33.8±5.2%; in experiment [2] (48 hours, control 39.5±3.1%), 4.6±2.3%. Also, the “residual epithelial defects, percentage” value turned out to be 47.8±4.3% in experiment [3] (setting [4]) and 16.8±6.6% in experiment [3] (setting [5]).

Consider “SLGAEQRTESIIHRALYYDL [20-mer, synthetic peptide identical to residues 11-30 of the 39-mer]”, for which the “percentage … per total Lgr6-positive cells” value in experiment [1] was 79.5±2.6%. The “corneal re-epithelialization” value in experiment [2] was “complete corneal re-epithelialization”. The “residual epithelial defect, percentage” value in experiment [2] (24 hours, control 84.9±5.1%) is 42.2±4.3%; in experiment [2] (48 hours, control 39.5±3.1%), 5.0±3.7%. The “residual epithelial defects, percentage” value in experiment [3] (setting [4]) is given as 50.1±3.8%; in experiment [3] (setting [5]), 20.0±4.9%.

Turning to “SLGAEQRTESIIHRALYYDLISSPDIHGT [29-mer, short synthetic PEDF peptide derived from the 39-mer]”, the “percentage … per total Lgr6-positive cells” value in experiment [1] was determined as 86.2±3.9%. Also, the “corneal re-epithelialization” value in experiment [2] is recorded as “complete corneal re-epithelialization”. Further, the “residual epithelial defect, percentage” value worked out at 36.5±6.4% in experiment [2] (24 hours, control 84.9±5.1%) and 3.7±2.9% in experiment [2] (48 hours, control 39.5±3.1%). Moreover, the “residual epithelial defects, percentage” value in experiment [3] (setting [4]) was 46.3±3.7%; in experiment [3] (setting [5]), 18.2±4.3%.
